Assay results reported in patent publication US5843887A, “Compositions for delivery of polypeptides, and methods” (Allied Medical Research Associates, priority 1994, dated 1998).

How the values were obtained:
[1] = pH of 8, in the presence of trypsin; cited from earlier work
[2] = tested on: serum glucose; experiment: IF and insulin injected into the sutured duodenal cavity of mice, serum glucose; type: in vivo; settings: 50 mg IF and 4 I.U. insulin, decreases up until death, depending on the dose
Method: 10 g IF (dosage of 300 Units per mg; one unit will bind one nanogram of vitamin B12) was added to 1 liter of 0.02M phosphate buffered solution and stirred up to 37° C. […] The solution (with a prefered pH of about 6) was stirred at a temperature of 37° C. for 24 hours. The product was then dialysed at 4° C. and dehydrated by lyophilization.

[3] = doses of 100 to 500 μg, as in pernicious anemia; cited from earlier work
[4] = tested on: blood glucose level; experiment: oral administration of IF and/or porcine insulin to mice, blood glucose level; type: in vivo; settings: administered orally (summary statement)
Method: The IF was substantially free of R-protein and prepared as in Example 1. […] Blood glucose level was measured with a blood glucose meter standard model Tracer (Boehringer) and produced the following results.

## IF: glycoprotein with a molecular weight of 50 kDa, 351 amino acids, binds cobalamin
[1]
  affinity for cobalamin relative to that of R protein: 150 times

## Insulin alone: human biogenetic insulin (Novo Nordisk) of Example 1, injected alone
[2]
  change in serum glucose: did not cause a fall in serum glucose

## cyanocobalamin
[3]
  fraction of dose absorbed (passive absorption): 1%

## insulin
[4]
  change in serum glucose after oral administration: no change in serum glucose
